The results in this text go back to patent US8129371B2, “Thienopyrimidine and pyrazolopyrimidine compounds and their use as mTOR kinase and PI3 kinase inhibitors” (Wyeth LLC, priority 2007, dated 2012).

Structures are written as SMILES. Read-outs that look alike come from different tables or passages of the source.

The test system of assay [1] is prostate line LNCap. The assay is described as follows: In vitro cell culture growth assay (MTS), LNCap. Conditions: Homo sapiens, LNCaP, 72 h, LNCap cells, three days after drug treatment. In kind it is cell-based. As to the method: Human tumor cell lines used include prostate lines LNCap and PC3MM2, breast lines MDA468, MCF7, renal line HTB44 (A498), colon line HCT116, and ovarian line OVCAR3. Cells were plated in 96-well culture plates. One day following plating, the inhibitors were added to cells. Three days after drug treatment, viable cell densities were determined by metabolic conversion (by viable cells) of the dye MTS, a well-established cell proliferation assay. The assays were performed using an assay kit purchased from Promega Corp. (Madison, Wis.) following the protocol supplied with the kit. The MTS assay results were read in a 96-well plate reader by measuring absorbance at 490 nm. The effect of each treatment was calculated as percent of control growth relative to the vehicle-treated cells grown in the same culture plate.

Assay [2] addresses T1, Human mTOR (FLAG-TOR) (Homo sapiens, UniProt P42345).
T1 construct: FLAG
The assay is described as follows: Human mTOR kinase assay with purified enzyme, DELFIA format. In kind it is biochemical. The essentials: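 DELFIA readout: Eu-anti-P(T389)-S6K antibody (40 ng/mL, 1 h) on captured His6-S6K from the stopped reaction. Kinase step used purified FLAG-tagged human mTOR with test compound in HEPES (pH 7.4)/MnCl2/DTT buffer, 2 h at room temperature (linear 1–6 h), terminated by EDTA/EGTA.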

The target in assay [3] is T2, PI3K (Homo sapiens, UniProt P48736).
T2 construct: PI3 Kinase γ IC50; other: PI3 Kinase γ; other: PI3 Kinase γ isoform, fluorescence polarization
The experiment in a line: Fluorescence polarization assay for PI3K. In kind it is biochemical. As to conditions: read-out: PI3 Kinase γ IC50. The essentials:
(§1)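 Fluorescence-polarization competition readout: after 30–60 min of PIP2/ATP turnover in 1% DMSO, a stop mix with GST-GRP (70 nM) and red probe (10 nM) was added.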

The target of assay [4] is T3, PI3K (Homo sapiens, UniProt P42336).
T3 construct: PI3 Kinase α IC50; other: PI3 Kinase α; other: PI3 Kinase α isoform, fluorescence polarization
The experiment in a line: Fluorescence polarization assay for PI3K. In kind it is biochemical. Conditions: read-out: PI3 Kinase α IC50. The essentials:
as §1

Assay [5] concerns breast line MDA468. The experiment in a line: In vitro cell culture growth assay (MTS), MDA468. In kind it is cell-based. Conditions: Homo sapiens, 72 h, MDA468 cells, three days after drug treatment. In short, it runs like this:
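The readout was MTS dye metabolism at 490 nm, taken after 3-day drug exposure that began the day after seeding. Growth was expressed as percent of vehicle-treated wells in the same plate.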

T2 sequence (P48736 whole entry, canonical isoform): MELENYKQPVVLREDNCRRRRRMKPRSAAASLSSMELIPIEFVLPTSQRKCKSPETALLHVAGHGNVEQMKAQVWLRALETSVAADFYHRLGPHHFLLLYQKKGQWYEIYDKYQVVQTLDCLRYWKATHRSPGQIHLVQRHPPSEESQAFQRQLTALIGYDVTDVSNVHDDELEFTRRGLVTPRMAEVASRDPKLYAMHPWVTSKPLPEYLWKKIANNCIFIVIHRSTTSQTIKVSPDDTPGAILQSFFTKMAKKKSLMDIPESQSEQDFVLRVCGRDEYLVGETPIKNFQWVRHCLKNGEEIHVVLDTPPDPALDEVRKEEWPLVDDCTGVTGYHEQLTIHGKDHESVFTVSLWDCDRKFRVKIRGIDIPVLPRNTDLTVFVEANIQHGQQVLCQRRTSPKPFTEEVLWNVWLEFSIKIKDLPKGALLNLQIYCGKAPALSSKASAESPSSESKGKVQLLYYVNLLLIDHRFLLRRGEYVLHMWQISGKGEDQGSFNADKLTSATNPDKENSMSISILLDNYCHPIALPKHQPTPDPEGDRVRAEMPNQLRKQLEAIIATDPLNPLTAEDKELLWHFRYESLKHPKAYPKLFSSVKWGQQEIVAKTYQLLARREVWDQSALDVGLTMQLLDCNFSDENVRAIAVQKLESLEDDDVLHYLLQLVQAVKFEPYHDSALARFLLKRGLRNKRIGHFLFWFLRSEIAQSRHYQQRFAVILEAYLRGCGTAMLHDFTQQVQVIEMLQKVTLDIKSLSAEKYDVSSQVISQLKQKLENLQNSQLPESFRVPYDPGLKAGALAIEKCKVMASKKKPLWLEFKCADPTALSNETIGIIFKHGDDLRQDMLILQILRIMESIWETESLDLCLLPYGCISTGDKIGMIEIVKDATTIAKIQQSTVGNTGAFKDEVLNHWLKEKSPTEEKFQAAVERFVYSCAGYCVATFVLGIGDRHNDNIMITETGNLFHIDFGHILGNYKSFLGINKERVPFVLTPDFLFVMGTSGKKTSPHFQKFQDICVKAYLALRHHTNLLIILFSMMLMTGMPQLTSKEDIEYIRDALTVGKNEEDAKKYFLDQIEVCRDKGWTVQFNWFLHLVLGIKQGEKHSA
T3 sequence (P42336 whole entry, canonical isoform): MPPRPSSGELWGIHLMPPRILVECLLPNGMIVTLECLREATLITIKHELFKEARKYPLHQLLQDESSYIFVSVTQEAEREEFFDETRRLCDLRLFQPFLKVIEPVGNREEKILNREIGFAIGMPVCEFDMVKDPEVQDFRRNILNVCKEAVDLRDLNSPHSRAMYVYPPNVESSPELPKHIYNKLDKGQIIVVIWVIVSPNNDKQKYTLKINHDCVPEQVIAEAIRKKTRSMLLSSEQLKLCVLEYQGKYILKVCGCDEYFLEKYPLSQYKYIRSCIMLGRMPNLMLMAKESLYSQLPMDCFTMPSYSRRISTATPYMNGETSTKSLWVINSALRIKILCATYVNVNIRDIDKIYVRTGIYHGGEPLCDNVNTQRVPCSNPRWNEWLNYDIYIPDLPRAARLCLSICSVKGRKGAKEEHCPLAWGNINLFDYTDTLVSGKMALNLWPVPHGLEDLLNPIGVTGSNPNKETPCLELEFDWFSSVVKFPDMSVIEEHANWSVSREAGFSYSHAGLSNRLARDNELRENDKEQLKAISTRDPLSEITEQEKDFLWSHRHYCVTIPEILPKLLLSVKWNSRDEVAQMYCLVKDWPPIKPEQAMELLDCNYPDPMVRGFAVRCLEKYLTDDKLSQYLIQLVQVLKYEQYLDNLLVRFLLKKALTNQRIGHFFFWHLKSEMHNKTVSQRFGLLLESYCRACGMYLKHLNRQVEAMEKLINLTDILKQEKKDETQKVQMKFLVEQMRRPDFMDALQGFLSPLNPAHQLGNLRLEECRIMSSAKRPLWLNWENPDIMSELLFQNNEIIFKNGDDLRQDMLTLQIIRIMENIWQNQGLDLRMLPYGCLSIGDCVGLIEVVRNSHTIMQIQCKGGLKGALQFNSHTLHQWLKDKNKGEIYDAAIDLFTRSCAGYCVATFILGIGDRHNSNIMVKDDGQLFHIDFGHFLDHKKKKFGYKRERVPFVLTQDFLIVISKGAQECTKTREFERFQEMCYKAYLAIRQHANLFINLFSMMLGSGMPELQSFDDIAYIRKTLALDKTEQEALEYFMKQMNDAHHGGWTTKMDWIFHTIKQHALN

For the molecule `CNC(=O)Nc1ccc(-c2nc(N3CC4CCC(C3)O4)c3cnn(C4CCN(C(=O)OC(C)(C)C)CC4)c3n2)cc1` [Example 8, tert-butyl 4-[6-{4-[(methylcarbamoyl)amino]phenyl}-4-(8-oxa-3-azabicyclo[3.2.1]oct-3-yl)-1H-pyrazolo[3,4-d]pyrimidin-1-yl]piperidine-1-carboxylate], the half-inhibitory concentration (IC50) in assay [1] was under 27 nM; in assay [2], 0.28 nM; in assay [3] (PI3 Kinase γ), over 10000 nM; in assay [4] (PI3 Kinase α), 1480 nM; in assay [5] it was 180 nM.

As for `O=C(Nc1ccc(-c2nc(N3CC4CCC(C3)O4)c3cnn(C4CCC5(CC4)OCCO5)c3n2)cc1)OCC(F)(F)F` [Example 129, 2,2,2-trifluoroethyl {4-[1-(1,4-dioxaspiro[4.5]dec-8-yl)-4-(8-oxa-3-azabicyclo[3.2.1]oct-3-yl)-1H-pyrazolo[3,4-d]pyrimidin-6-yl]phenyl}carbamate], the half-inhibitory concentration (IC50) in assay [1] was 800 nM; in assay [2], 10.4 nM; in assay [3] (PI3 Kinase γ), over 10000 nM; in assay [4] (PI3 Kinase α), over 10000 nM; in assay [5], 4900 nM.

`COC(=O)N1CCC(n2ncc3c(N4CC5CCC(C4)O5)nc(-c4ccc(NC(=O)NCCN(C)C)cc4)nc32)CC1` [Example 169, methyl 4-{6-[4-({[2-(dimethylamino)ethyl]carbamoyl}amino)phenyl]-4-(8-oxa-3-azabicyclo[3.2.1]oct-3-yl)-1H-pyrazolo[3,4-d]pyrimidin-1-yl}piperidine-1-carboxylate]: the 50% inhibitory concentration (IC50) was 500 nM in assay [1]; 40.5 nM in assay [2]; 5450 nM in assay [3] (PI3 Kinase γ); 422 nM in assay [4] (PI3 Kinase α); 2200 nM in assay [5].

As for `CCNC(=O)Nc1ccc(-c2nc(N3CC4CCC(C3)O4)c3cnn(CCF)c3n2)cc1` [Example 247, 1-ethyl-3-{4-[1-(2-fluoroethyl)-4-(8-oxa-3-azabicyclo[3.2.1]oct-3-yl)-1H-pyrazolo[3,4-d]pyrimidin-6-yl]phenyl}urea], the IC50 in assay [1] was 90 nM; in assay [2], 0.7 nM; in assay [3] (PI3 Kinase γ), over 10000 nM; in assay [4] (PI3 Kinase α), 1360 nM; in assay [5], 400 nM.

Take `CCn1ncc2c(N3CC4CCC(C3)O4)nc(-c3ccc(NC(=O)Nc4ccc(NC)nc4)cc3)nc21` [Example 286, 1-{4-[1-ethyl-4-(8-oxa-3-azabicyclo[3.2.1]oct-3-yl)-1H-pyrazolo[3,4-d]pyrimidin-6-yl]phenyl}-3-[6-(methylamino)pyridin-3-yl]urea]: the IC50 in assay [1] was found to be 17 nM; in assay [2], 0.9 nM; in assay [3] (PI3 Kinase γ), 14900 nM; in assay [4] (PI3 Kinase α) it was 270 nM; in assay [5], 200 nM.

Consider `CNC(=O)Nc1ccc(-c2nc(N3CC4CCC(C3)O4)c3cnn(CCC#N)c3n2)cc1` [Example 214, 1-{4-[1-(2-cyanoethyl)-4-(8-oxa-3-azabicyclo[3.2.1]oct-3-yl)-1H-pyrazolo[3,4-d]pyrimidin-6-yl]phenyl}-3-methylurea], for which the IC50 was 210 nM in assay [1]; 1.5 nM in assay [2]; over 10000 nM in assay [3] (PI3 Kinase γ); 726 nM in assay [4] (PI3 Kinase α); 570 nM in assay [5].

For the molecule `Cn1ncc2c(N3CC4CCC(C3)O4)nc(-c3cccc(O)c3)nc21` [Example 61, 3-[1-methyl-4-(8-oxa-3-azabicyclo[3.2.1]oct-3-yl)-1H-pyrazolo[3,4-d]pyrimidin-6-yl]phenol], the IC50 worked out at 1800 nM in assay [1]; 90 nM in assay [2]; 1840 nM in assay [3] (PI3 Kinase γ); 903 nM in assay [4] (PI3 Kinase α); 7600 nM in assay [5].

On to `Cn1ncc2c(N3CC4CCC(C3)O4)nc(-c3ccc(NC(=O)Nc4ccc(CO)cc4)cc3)nc21` [Example 231, 1-[4-(hydroxymethyl)phenyl]-3-{4-[1-methyl-4-(8-oxa-3-azabicyclo[3.2.1]oct-3-yl)-1H-pyrazolo[3,4-d]pyrimidin-6-yl]phenyl}urea], for which the IC50 in assay [1] was under 1 nM; in assay [2], 0.13 nM; in assay [3] (PI3 Kinase γ), 468 nM; in assay [4] (PI3 Kinase α), 47 nM; in assay [5], under 1 nM.

Regarding `O=C(Nc1ccc(-c2nc(N3CC4CCC(C3)O4)c3cnn(CCO)c3n2)cc1)Nc1cccnc1` [Example 199, 1-{4-[1-(2-hydroxyethyl)-4-(8-oxa-3-azabicyclo[3.2.1]oct-3-yl)-1H-pyrazolo[3,4-d]pyrimidin-6-yl]phenyl}-3-pyridin-3-ylurea], the IC50 turned out to be 90 nM in assay [1]; 0.46 nM in assay [2]; 3990 nM in assay [3] (PI3 Kinase γ); 174 nM in assay [4] (PI3 Kinase α); 110 nM in assay [5].

For the molecule `CNC(=O)Nc1ccc(-c2nc(N3CC4CCC(C3)O4)c3cnn(CCO)c3n2)cc1` [Example 193, 1-{4-[1-(2-hydroxyethyl)-4-(8-oxa-3-azabicyclo[3.2.1]oct-3-yl)-1H-pyrazolo[3,4-d]pyrimidin-6-yl]phenyl}-3-methylurea], the IC50 was 650 nM in assay [1]; 2.85 nM in assay [2]; over 10000 nM in assay [3] (PI3 Kinase γ); 375 nM in assay [4] (PI3 Kinase α); 980 nM in assay [5].

`Cn1ncc2c(N3CC4CCC(C3)O4)nc(-c3ccc(NC(=O)Nc4ccncc4)cc3)nc21` [Example 57, 1-{4-[1-methyl-4-(8-oxa-3-azabicyclo[3.2.1]oct-3-yl)-1H-pyrazolo[3,4-d]pyrimidin-6-yl]phenyl}-3-pyridin-4-ylurea]: the IC50 worked out at 0.8 nM in assay [1]; 0.18 nM in assay [2]; 782 nM in assay [3] (PI3 Kinase γ); 162 nM in assay [4] (PI3 Kinase α); 9 nM in assay [5].

Consider `CC(C)(C)OC(=O)N1CCC(n2ncc3c(N4CC5CCC(C4)O5)nc(-c4ccc(NC(=O)NCCF)cc4)nc32)CC1` [Example 21, tert-butyl 4-[6-(4-{[(2-fluoroethyl)carbamoyl]amino}phenyl)-4-(8-oxa-3-azabicyclo[3.2.1]oct-3-yl)-1H-pyrazolo[3,4-d]pyrimidin-1-yl]piperidine-1-carboxylate], for which the half-inhibitory concentration (IC50) was 12 nM in assay [1]; 0.24 nM in assay [2]; 11000 nM in assay [3] (PI3 Kinase γ); 3960 nM in assay [4] (PI3 Kinase α); 120 nM in assay [5].

In the case of `CC(=O)Nc1ccc(-c2nc(N3CC4CCC(C3)O4)c3sccc3n2)cc1` [Example 415, N-{4-[4-(8-oxa-3-azabicyclo[3.2.1]oct-3-yl)thieno[3,2-d]pyrimidin-2-yl]phenyl}acetamide], the half-inhibitory concentration (IC50) was 1700 nM in assay [1]; 26 nM in assay [2] (purified human mTOR enzyme, DELFIA format); over 10000 nM in assay [3] (PI3 Kinase γ isoform, fluorescence polarization); 4370 nM in assay [4] (PI3 Kinase α isoform, fluorescence polarization); 8500 nM in assay [5].

Consider `O=C(Nc1ccc(CO)cc1)Nc1ccc(-c2nc(N3CC4CCC(C3)O4)c3cnn(CC(F)(F)F)c3n2)cc1` [Example 253, 1-[4-(hydroxymethyl)phenyl]-3-{4-[4-(8-oxa-3-azabicyclo[3.2.1]oct-3-yl)-1-(2,2,2-trifluoroethyl)-1H-pyrazolo[3,4-d]pyrimidin-6-yl]phenyl}urea], for which the IC50 in assay [1] was 1 nM; in assay [2], 0.15 nM; in assay [3] (PI3 Kinase γ), 780 nM; in assay [4] (PI3 Kinase α), 56 nM; in assay [5], under 1 nM.
